Results published in patent EP4692088A1, “COMPOUND ACTING AS WRN HELICASE INHIBITOR” (SHANGHAI JEYOU PHARMACEUTICAL CO., LTD., priority 2023, dated 2024).

Columns and labels:
HCT116 cells = assay: Cell proliferation assay (CellTiter-Glo), HCT116; format: cell-based; conditions: Homo sapiens, 120 h, HCT-116, 5 days incubation
Method: (§1) SW48 cells were plated at a density of 1,500 cells/well, and LoVo, HCT116, and SW620 cells were plated at a density of 800 cells/well in a 96-well cell culture plate, and cultured in a 37°C incubator overnight. The test compounds, which were gradient-diluted with DMSO, were added, and after incubation for 5 days, cell viability was detected using a CellTiter-Glo kit. The CellTiter-Glo reagent was equilibrated to room temperature, and an appropriate amount was added to the cell plate, followed by shaking at room temperature for 12 min. The luminescence signal was detected using a microplate reader.
(§2) The luminescence signal values of the DMSO-treated wells and cell-free wells were used as negative and positive controls, respectively, to calculate the inhibition rate of compound on cell proliferation. The concentration-inhibition curve was fitted using the "log(inhibitor) vs. normalized response -- Variable slope" equation in GraphPad Prism 8 software to obtain the IC50. [formula]

SW48 cells = assay: Cell proliferation assay (CellTiter-Glo), SW48; format: cell-based; conditions: Homo sapiens, SW48, 120 h, SW-48, 5 days incubation
Method: as §1, §2

LoVo = assay: Cell proliferation assay (CellTiter-Glo), LoVo; format: cell-based; conditions: Homo sapiens, 120 h, 5 days incubation
Method: as §1, §2

SW620 cells [1] = assay: Cell proliferation assay (CellTiter-Glo), SW620; format: cell-based; conditions: Homo sapiens, 120 h, SW-620 (MSS), 5 days incubation
Method: as §1, §2

HCT116 = assay: γH2AX induction assay (HTRF Phospho-H2AX), HCT116; format: cell-based; conditions: Homo sapiens, HCT-116, incubated for 2-3 days, read-out: γ-H2AX induction HCT-116 (EC50 nM)
Method: (§3) SW48, HCT116, and SW620 cells were plated into 96-well cell culture plates at a density of 15,000-25,000 cells/well and cultured overnight in a 37°C incubator. The test compounds, which were gradient-diluted with DMSO, were added and incubated for 2-3 days. The γ-H2AX level was detected using HTRF Phospho-H2AX (SER139) Detection Kits. The 4× Lysis buffer and Detection buffer were equilibrated to room temperature for later use. The 4× Lysis buffer was diluted to 1× Lysis buffer using ddH2O. After the medium was aspirated, 50 µL of 1× Lysis buffer was added to each well and shaken at room temperature for 30 minutes for lysis. 16 µL of lysate was transferred to a 384-well plate, followed by the addition of 4 µL of diluted antibody mixture (Phospho-H2AX d2 antibody and Phospho-H2AX Eu Cryptate antibody were each diluted 20-fold using Detection buffer, and the two antibodies were then mixed uniformly at a 1:1 volume ratio). The mixture was incubated at room temperature for 2-24 h, and fluorescence signals at […] and 615 nm were detected using a microplate reader. Parallel treatment plates were simultaneously set up in the experiment, and cell viability was detected using the CellTiter-Glo kit. The CellTiter-Glo reagent was equilibrated to room temperature, and an appropriate amount was added to the cell plate, followed by shaking at room temperature for 12 min. The luminescence signal was detected using a microplate reader.
(§4) The fluorescence signal values of DMSO-treated wells and positive drug-treated wells were used as negative and positive controls, respectively, to calculate the level of γ-H2AX induced by the compounds. The concentration-induction rate curve was fitted using the "log(agonist) vs. response -- Variable slope (four parameters)" equation in GraphPad Prism 8 software to obtain the EC50. [formula] [formula]

SW48 = assay: γH2AX induction assay (HTRF Phospho-H2AX), SW48; format: cell-based; conditions: Homo sapiens, SW-48, incubated for 2-3 days, read-out: γ-H2AX induction SW-48 (EC50 nM)
Method: as §3, §4

SW620 cells [2] = assay: γH2AX induction assay (HTRF Phospho-H2AX), SW620; format: cell-based; conditions: Homo sapiens, SW-620 (MSS), incubated for 2-3 days, read-out: γ-H2AX induction SW-620 (EC50 nM)
Method: as §3, §4

[3] = Pharmacokinetic test in mice; format: in vivo; conditions: mouse, CD-1 mice, male, oral gavage, 10 mg/kg, plasma
Method: CD-1 mice were taken as test animals. Example 4, Example 22, and Comparative Example HRO761 were given by gavage. The drug concentrations in mouse plasma at different time points were determined by LC-MS/MS to investigate the pharmacokinetic characteristics of the compounds of the present disclosure in mice.
• Experimental drugs: Example 4, Example 22, and Comparative Example HRO761; • Animals: CD-1 mice, male, 24-25 g, purchased from Shanghai Jihui Laboratory Animal Care Co.,Ltd.
An appropriate amount of Example 4, Example 22, and Comparative Example HRO761 was weighed and sequentially added to an appropriate amount of dimethyl sulfoxide, solutol, and saline (final solvent: 5% DMSO + 10% solutol + 85% saline). The mixture was vortexed and sonicated to prepare a 1.0 mg/mL dosing solution.
Three mice in gavage groups of Example 4, Example 22, and Comparative Example HRO761 were administered by oral gavage after overnight fasting (dose: 10 mg/kg, administration volume: 10 mL/kg), and the mice were fed 4 h after administration.
(§5) 0.04 mL of blood was collected from the animals before administration and at 0.083 h, 0.25 h, 0.5 h, 1 h, 2 h, 4 h, 6 h, 8 h, and 24 h after administration, and anticoagulated with sodium heparin. Blood samples were placed on ice after collection, and plasma was separated by centrifugation (centrifugation conditions: 8000 rpm, 5 min). The collected plasma was stored at -80°C before analysis.
LC-MS/MS was used to determine the content of the test compound in mouse plasma after intragastric administration.
(§6) Based on the calculated concentrations of the compounds in plasma at different time points, the pharmacokinetic parameters of Example 4, Example 22, and Comparative Example HRO761 in mice were calculated using winnonlin software. The pharmacokinetic parameters of Example 4, Example 22, and Comparative Example HRO761 of the present disclosure are shown in Table 13.

[4] = Pharmacokinetic test in rats; format: in vivo; conditions: rat, SD rats, male, oral gavage, 10 mg/kg, plasma
Method: SD rats were taken as test animals. Example 4, Example 15, and Comparative Example HRO761 were given by gavage. The drug concentrations in rat plasma at different time points were determined by LC-MS/MS to investigate the pharmacokinetic characteristics of Example 4, Example 15, and Comparative Example HRO761 in rats.
• Experimental drugs: Example 4, Example 15, and Comparative Example HRO761; • Animals: SD rats, male, 240-260 g, purchased from Shanghai Jihui Laboratory Animal Care Co.,Ltd.
An appropriate amount of Example 4, Example 15, and Comparative Example HRO761 was weighed and added to an appropriate amount of dimethyl sulfoxide, solutol, and saline (final solvent: 5% DMSO + 10% solutol + 85% saline). The mixture was vortexed and sonicated to prepare a 1.0 mg/mL dosing solution.
The rats in gavage groups (3 rats per group) of Example 4, Example 15, and Comparative Example HRO761 were administered by oral gavage after overnight fasting (dose: 10 mg/kg, administration volume: 10 mL/kg), and the rats were fed 4 h after administration.
as §5, with “0.2” for “0.04”
The contents of Example 4, Example 15, and Comparative Example HRO761 in rat plasma after oral administration were determined by LC-MS/MS.
as §6, with “15,” for “22,”, “rats” for “mice”, “14.” for “13.”

IC50 (HCT116 cells): 143 nM
IC50 (SW48 cells): 144 nM
IC50 (LoVo): 220 nM
IC50 (SW620 cells [1]): > 25000 nM
EC50 (HCT116): 640 nM
EC50 (SW48): 324 nM
EC50 (SW620 cells [2]): > 10000 nM
Cmax [3]: 11200 ng/mL
AUC ([3]; read-out: AUC0-i): 28300 ng·h/mL
Cmax [4]: 6960 ng/mL
AUC ([4]; read-out: AUC0-i): 63600 ng·h/mL
Compound: CCc1c(N2CCN(C(=O)c3ncnc(C)c3O)CC2)c(=O)n2nc(C3=CCOCC3)nc2n1CC(=O)Nc1ccc(C(F)(F)F)cc1Cl [HRO761, reference compound]
